Reference: US20230181905A1, “Systems, Devices, and Methods for Enhancing the Neuroprotective Effects of Non-Invasive Gamma Stimulation with Pharmacological Agents” (Massachusetts Institute of Technology, priority 2021, published 2023)

Assays:
Assay type in all cases: in vivo, mouse
IBA1+ microglia [1] = assay: IBA1+ microglia density, area and volume by immunohistochemistry
Description: Experiments were performed to reduce microglia from 10-month-old 5×FAD mice, transgenic mice that overexpress human APP and PSEN1 genes harboring 5 AD-associated mutations, prior to GENUS treatment. […] Following 20 days of administration of Plx3397 chow, untreated- and Plx3397-treated 5×FAD mice (which continued Plx3397 administration) were subjected to 30 days of daily GENUS (FIG. 1A). Following completion of these treatments, microglial density in the visual cortex was compared between 1) untreated (No Stim), 2) Plx3397 treated, 3) GENUS treated and 4) Plx3397+GENUS treated 5×FAD mice (FIG. 1B).
Whether the neuroprotective effect is broader and can be replicated in other mouse models of neurodegeneration was evaluated. The CK-p25 mice, transgenic mice that overexpress CDK5 activator p25 in excitatory neurons, were subjected to these treatments. CK-p25 mice, which was raised in doxycycline containing food, was given either normal rodent chow (containing no doxycycline) or Plx3397 chow, and the mice simultaneously underwent no sensory stimulation or GENUS (FIG. 7A). After 42 days of treatment, neuroprotective factors were evaluated. Plx3397, GENUS and Plx3397+GENUS treatments reduced microglia in the visual cortex in CK-p25 mice (ANOVA F (3,35)=40.93, P<0.0001) (FIGS. 7B-7D), consistent with the results observed in 5×FAD mice and recent findings.
(§1) Microglia: Iba1 immunoreactive cells were considered microglia. Using an LSM 710 or LSM 880 with a 10× (for Iba1+ cell counts) or 40× (for morphological analysis) objective z stacks of the entire slice thickness […] with […] step size were acquired. Imaris was used for 3D rendering of images to quantify the total volume of microglia.
To study how CSF1R-sensitive microglia impact neural activity in the context of AD, an amyloidosis mouse model, the 5×FAD mice—which is a most commonly used mouse model for AD, was subject to a diet containing CSF1R inhibitor Plx3397 for 50 days (FIG. 21A). The CSF1R inhibitor Plx3397 (600 ppm) was employed, which was previously shown to effectively reduce microglia in vivo. Control mice were age-matched 5×FAD litters that received a regular diet. Electrophysiological recordings were performed using linear probes. Post-recording, the recording site in the visual cortex was verified by histology (FIG. 21), and microglia reduction was evaluated by assessing IBA1+ cell numbers.
How does regulating gamma oscillations affect synaptic and neural circuit function in Plx3397 treated 5×FAD mice? Specifically, it was asked what gene expression patterns are after the Plx3397 treatment and how gamma entrainment impacts such a signature. To address these questions, an unbiased RNA sequencing approach was utilized. 5×FAD mice were treated, via oral delivery in mouse chow, with the Plx3397. Following 20 days of administration of Plx3397 chow, untreated- and Plx3397-treated 5×FAD mice (which continued Plx3397 administration) were subjected to 30 days of daily GENUS (FIG. 24A). Following completion of the treatments, microglial density was quantified between 1) untreated (control), 2) Plx3397, 3) GENUS and 4) Plx3397+GENUS treated 5×FAD mice (FIGS. 24A-24D). […] Also observed was a reduction in IBA1 signal in the GENUS group (84.0±6.42 & 9.17±0.85) (FIGS. 24C-24D), which is consistent with previous observation in CK-p25 mice. After the treatments, the visual cortex was dissected, and single nucleus RNA-sequencing was performed.
as §1, with “of microglia. MAC2+ cells were counted manually using Image J.” for “of microglia.”

IBA1+ microglia [2] = assay: Iba1+ microglia counts in APOE4-KI 5×FAD hippocampus
Description: Hippocampal mouse brain sections were stained for Iba1, a microglia/macrophage specific marker, and cell numbers were counted. […] Next, 7-8 month old male APOE4-KI 5×FAD animals were treated with 3 weeks of PLX3397 diet (or control), followed by 21 days of A+V GENUS, during which animals remained on their diets (FIG. 37).

perineuronal nets (WFA) = assay: WFA staining of perineuronal nets; conditions: 5×FAD mice
Excerpt: Perineuronal nets (PNN) of neurons are necessary for neuronal integrity and circuit plasticity. Loss of PNN is shown to occur in AD. […] Therefore, the effect of the treatment on PNN was examined.
Antibodies: IBA1 (Synaptic Systems, Cat #234 004, dilution-1:500; Wako Chemicals, Cat #019-19741, dilution-1:500), GFAP (Thermo Fisher Scientific, Cat #130300, dilution-1:500), MEF2C (Cell Signaling Technology, Cat #5030T), MAC2 (Cedarlane Labs, Cat #CL8942AP, dilution-1:500), vGAT (Synaptic Systems, Cat #131 013, dilution-1:500), vGLUT (Synaptic Systems, Cat #1135 302, dilution-1:500), NeuN (Synaptic Systems, Cat #266 004, dilution-1:1000), MHC2 (EMD Millipore, Cat #MABF33, dilution-1:500), C1q (Abcam, Cat #ab182451, dilution-1:500), synaptophysin (Sigma, Cat #S5768). The following combination of secondary antibodies were used: (1) Alexa Fluor 488, 594 and 647, (2) Alexa Fluor 555 and 647, (3) Alexa Fluor 594 and 647, or (4) Alexa Fluor 488 and 647. All secondary antibodies were obtained from Invitrogen. Biotinylated Wisteria Floribunda Lectin (Vector Laboratories, Cat #B-1355, dilution-1:500) followed by streptavidin conjugated Alexa Fluor 594 (Thermo Fisher Scientific, Cat #S32356, dilution-1:1000) was used to examine WFA.

[3] = 5×FAD mice, visual cortex, Plx3397 chow 50 days, GENUS last 30 days

Question: What does the source list for `FC(F)(F)c1ccc(CNc2ccc(Cc3c[nH]c4ncc(Cl)cc34)cn2)cn1` [Plx3397, Pexidartinib]?
Answer: IBA1+ positive microglia (IBA1+ microglia [1]; 5×FAD mice, CA1 region of the hippocampus): significant reduction; IBA1+ cells (IBA1+ microglia [1]; 5×FAD mice, hippocampus, chronic Plx3397 vs control): reduced; IBA1+ positive microglia (IBA1+ microglia [1]; 5×FAD mice, visual cortex, Plx3397 chow 600 ppm 20 days, then 30 days continued with or without daily GENUS, vs untreated): significant reduction; % area covered by IBA1 (IBA1+ microglia [1]; [3]): 7.27±0.45%; IBA1+ microglia number (IBA1+ microglia [1]; [3]): 47.18±5.44 % no treatment control; IBA1+ cells (IBA1+ microglia [1]; 5×FAD mice, visual cortex, Plx3397 diet 600 ppm for 50 days): 12±1.91 cells; volume of microglia (IBA1+ microglia [1]; CK-p25 mice, visual cortex, 42 days): lower volume; microglia (IBA1+ microglia [1]; CK-p25 mice, visual cortex, 42 days of treatment): reduced; IBA1+ microglial cells (IBA1+ microglia [1]; CK-p25 mice, visual cortex, chronic treatment 6 weeks): 44.19±2.86 % no treatment control; microglia numbers (Iba1+ cell counts), GENUS vs no GENUS after depletion (IBA1+ microglia [2]; APOE4-KI 5×FAD mice on PLX3397 diet): not further modified; microglia numbers (IBA1+ microglia [2]; male APOE4-KI 5×FAD mice, hippocampus, PLX3397 diet vs standard diet): significant reduction; WFA content within the microglia compared to control mice (perineuronal nets (WFA)): higher; WFA signals (perineuronal nets (WFA); hippocampus, chronic Plx3397 vs control): increased; PNN coverage (perineuronal nets (WFA); visual cortex): increased; WFA overall signal intensity (perineuronal nets (WFA); visual cortex): increased; WFA signals (perineuronal nets (WFA); visual cortex): 130.4±7.178 % of no treatment control; WFA+ PNN signals (perineuronal nets (WFA); visual cortex, Plx3397 50 days): 289400000±9384029 au
